Source: US20250326748A1, “COMPOUNDS AND METHODS FOR MODULATING SPLICING” (REMIX THERAPEUTICS INC., priority 2022, published 2025)
Structures can show the parent of a compound that is named as a salt. Where two headings read alike, the source gives them in different places.

Assays:
HTT mRNA = test: Splicing RT-qPCR assay, HTT canonical (CJ) and alternative (AJ) junction mRNA; format: cell-based, human; conditions: Homo sapiens; for IC50: canonical junction mRNA; for AC50: alternative junction mRNA, read-out: HTT AJ (AC50, increase in AJ mRNA)
In short: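 Read-out: one-step RT-qPCR on crude lysates measuring exon-exon junction isoforms, CJ for the canonical transcript and AJ for compound-induced exon inclusion. Normalization used PPIA for adherent A673 and GAPDH or GUSB for K562. Cells received 11 doses, 3-fold apart, top 10 uM, for 24 h.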

SMN2 mRNA = test: Splicing RT-qPCR panel, SMN2 canonical junction (CJ) mRNA; format: cell-based, human; conditions: Homo sapiens, read-out: SMN2 CJ (decrease in CJ mRNA levels, IC50)
In short: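 A673 cells (DMEM, 10% FBS) or K562 cells (IMDM, 10% FBS) treated 24 h at 37 °C with an 11-point 3-fold dilution, top 10 uM, DMSO ≤0.25%. Canonical-junction mRNA quantified in lysates by RT-qPCR, normalised to GAPDH, GUSB or PPIA and to DMSO (2^−ΔΔCt), then converted to % response.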

[1] = 24 h, RT-qPCR, A673 or K562 cells, 24 hours treatment, read-out: HTT CJ (IC50, decrease in CJ mRNA)
[2] = qPCR panel, read-out: HTT CJ (decrease in CJ mRNA levels, IC50)
[3] = RT-qPCR, A673 or K562 cells, 24 hours treatment

| SMILES | IC50 (HTT mRNA; [1]) | IC50 (HTT mRNA; [2]) | AC50 (HTT mRNA; [3]) | IC50 (SMN2 mRNA) |
| --- | --- | --- | --- | --- |
| CN[C@H]1CN(c2cnc3nc(-c4cc5cn(C)nc5c(C)c4O)ccc3c2)C[C@@H]1C [Compound 127, 2,7-dimethyl-5-{6-[(3S,4R)-3-methyl-4-(methylamino)384pyrrolidine-1-yl]-1,8-naphthyridin-2-yl}indazol-6-ol] | 100 to 1000 nM | 100 to 1000 nM | 100 to 1000 nM | < 100 nM |
| CN[C@@H]1CN(c2cnc3nc(-c4cc5cn(C)nc5c(C)c4O)ccc3c2)C[C@@H]1C [Compound 128] | 100 to 1000 nM | 100 to 1000 nM | 100 to 1000 nM | < 100 nM |
| CN[C@H]1CN(c2cnc3nc(-c4cc5cn(C)nc5c(C)c4O)ccc3c2)C[C@H]1F [Compound 129, 5-{6-[(3R,4S)-3-fluoro-4-(methylamino)pyrrolidin-1-yl]-1,8-naphthyridin-2-yl}-2,7-dimethylindazol-6-ol] | 100 to 1000 nM | 100 to 1000 nM | 100 to 1000 nM | < 100 nM |
| CN[C@@H]1CN(c2cnc3nc(-c4cc5cn(C)nc5c(C)c4O)ccc3c2)C[C@@H]1F [Compound 132, 5-{6-[(3S,4R)-3-fluoro-4-(methylamino)pyrrolidin-1-yl]-1,8-naphthyridin-2-yl}-2,7-dimethylindazol-6-ol] | 100 to 1000 nM | 100 to 1000 nM | 100 to 1000 nM | < 100 nM |
| Cn1cc2cc(-c3cnc4nc(N5CCC(NC(C)(C)C)C5)ccc4c3)c(O)cc2n1 (centres unmarked) [Compound 133, 5-{7-[3-(tert-butylamino)pyrrolidin-1-yl]-1,8-naphthyridin-3-yl}-2-methylindazol-6-ol] | 1000 to 10000 nM | 1000 to 10000 nM | > 10000 nM | > 10000 nM |
| Cn1cc2cc(-c3ccc4cc(N5CCC(NC(C)(C)C)C5)cnc4n3)c(O)cc2n1 (centres unmarked) [Compound 134, 5-{6-[3-(tert-butylamino)pyrrolidin-1-yl]-1,8-naphthyridin-2-yl}-2-methylindazol-6-ol hydrochloride] | 100 to 1000 nM | 100 to 1000 nM | 100 to 1000 nM | < 100 nM |
| Cn1cc2cc(-c3ccc4cc(N5CC[C@@H](NCC6CC6)C5)cnc4n3)c(O)c(F)c2n1 [Compound 135, 5-{6-[(3R)-3-[(cyclopropylmethyl)amino]330pyrrolidine-1-yl]-1,8-naphthyridin-2-yl}-7-fluoro-2-methylindazol-6-ol] | < 100 nM | < 100 nM | < 100 nM | < 100 nM |
| Cn1cc2cc(-c3ccc4cc(N5CC[C@H](NCC6CC6)C5)cnc4n3)c(O)c(F)c2n1 [Compound 136, 5-{6-[(3S)-3-[(cyclopropylmethyl)amino]326pyrrolidine-1-yl]-1,8-naphthyridin-2-yl}-7-fluoro-2-methylindazol-6-ol] | 100 to 1000 nM | 100 to 1000 nM | 100 to 1000 nM | < 100 nM |
| Cc1c(O)c(-c2ccc3cc(N4CCNCC4)cnc3n2)cc2cn(C)nc12 [Compound 137, 2,7-dimethyl-5-[6-(piperazin-1-yl)-1,8-naphthyridin-2-yl]indazol-6-ol] | 100 to 1000 nM | 100 to 1000 nM | 100 to 1000 nM | < 100 nM |
| Cc1c(O)c(-c2ccc3cc(N4CCC(N(C)C)CC4)cnc3n2)cc2cn(C)nc12 [Compound 138, 5-{6-[4-(dimethylamino)piperidin-1-yl]-1,8-naphthyridin-2-yl}-2,7-dimethylindazol-6-ol] | 100 to 1000 nM | 100 to 1000 nM | 1000 to 10000 nM | < 100 nM |
| CNC1CCN(c2cnc3nc(-c4cc5cn(C)nc5c(C)c4O)cc(Cl)c3c2)C1 (centres unmarked) [Compound 142, 5-{4-chloro-6-[3-(methylamino)351pyrrolidine-1-yl]-1,8-naphthyridin-2-yl}-2,7-dimethylindazol-6-ol] | < 100 nM | < 100 nM | 100 to 1000 nM | < 100 nM |
| Cc1c(O)c(-c2cc(Cl)c3cc(N4CCC(N(C)C)C4)cnc3n2)cc2cn(C)nc12 (centres unmarked) [Compound 143, 5-{4-chloro-6-[3-(dimethylamino)357pyrrolidine-1-yl]-1,8-naphthyridin-2-yl}-2,7-dimethylindazol-6-ol] | 100 to 1000 nM | 100 to 1000 nM | 100 to 1000 nM | < 100 nM |
| Cc1c(O)c(-c2cc(C3CC3)c3cc(N4CCNCC4)cnc3n2)cc2cn(C)nc12 [Compound 144, 5-(4-cyclopropyl-6-(piperazin-1-yl)-1,8-naphthyridin-2-yl)-2,7-dimethyl-2H-indazol-6-ol bis(2,2,2-trifluoroacetate)] | 100 to 1000 nM | 100 to 1000 nM | 100 to 1000 nM | < 100 nM |
| Cc1c(O)c(-c2cc(Cl)c3cc(NC4CCNC4)cnc3n2)cc2cn(C)nc12 (centres unmarked) [Compound 146, 5-[4-chloro-6-(359pyrrolidine-3-ylamino)-1,8-naphthyridin-2-yl]-2,7-dimethylindazol-6-ol] | 100 to 1000 nM | 100 to 1000 nM | 100 to 1000 nM | < 100 nM |
| Cc1c(O)c(-c2cc(Cl)c3cc(N4CCNC(C)C4)cnc3n2)cc2cn(C)nc12 (centres unmarked) [Compound 147] | 100 to 1000 nM | 100 to 1000 nM | 100 to 1000 nM | < 100 nM |
| Cc1c(O)c(-c2cc(Cl)c3cc(N4C[C@@H](C)N[C@@H](C)C4)cnc3n2)cc2cn(C)nc12 [Compound 149] | 100 to 1000 nM | 100 to 1000 nM | 100 to 1000 nM | < 100 nM |
| CNC(=O)c1cc(-c2cc3cn(C)nc3c(C)c2O)nc2ncc(N3CCNCC3)cc12 [Compound 150, 2-(6-hydroxy-2,7-dimethylindazol-5-yl)-N-methyl-6-(piperazin-1-yl)-1,8-naphthyridine-4-carboxamide] | > 10000 nM | > 10000 nM | > 10000 nM | 1000 to 10000 nM |
| Cc1cc(-c2cc3cn(C)nc3c(C)c2O)nc2ncc(N3CCNCC3)cc12 [Compound 151, 2,7-dimethyl-5-[4-methyl-6-(piperazin-1-yl)-1,8-naphthyridin-2-yl]indazol-6-ol] | 100 to 1000 nM | 100 to 1000 nM | 100 to 1000 nM | < 100 nM |
| Cc1cn2cc(-c3cc(Cl)c4cc(N5CCNCC5)cnc4n3)cc(F)c2n1 [Compound 153, 4-chloro-2-{8-fluoro-2-methylimidazo[1,2-a]pyridin-6-yl}-6-(piperazin-1-yl)-1,8-naphthyridine] | 100 to 1000 nM | 100 to 1000 nM | 1000 to 10000 nM | < 100 nM |
| CN[C@H]1CCN(c2cnc3nc(-c4cc5cn(C)nc5c(F)c4O)cc(Cl)c3c2)C1 [Compound 272] | < 100 nM | < 100 nM | < 100 nM | < 100 nM |
| Cn1cc2cc(-c3cc(Cl)c4cc(N5CCNC6(CC6)C5)cnc4n3)c(O)c(F)c2n1 [Compound 274] | 100 to 1000 nM | 100 to 1000 nM | 100 to 1000 nM | < 100 nM |
| CN(c1cnc2nc(-c3cc4cn(C)nc4c(F)c3O)cc(Cl)c2c1)[C@H]1CCNC1 [Compound 275] | 1000 to 10000 nM | 1000 to 10000 nM | 1000 to 10000 nM | < 100 nM |
| CN(c1cnc2nc(-c3cc4cn(C)nc4c(F)c3O)cc(Cl)c2c1)[C@@H]1CCNC1 [Compound 276] | 100 to 1000 nM | 100 to 1000 nM | 100 to 1000 nM | < 100 nM |
| Cc1c(O)c(-c2ccc3c(Cl)c(N4CCNCC4)cnc3n2)cc2cn(C)nc12 [Compound 278, 5-[5-chloro-6-(piperazin-1-yl)-1,8-naphthyridin-2-yl]-2,7-dimethylindazol-6-ol] | 1000 to 10000 nM | 1000 to 10000 nM | 1000 to 10000 nM | < 100 nM |
| C[C@@H]1CN(c2cnc3nc(-c4cc5cn(C)nc5c(F)c4O)cc(Cl)c3c2)C[C@H](C)N1 [Compound 279] | 100 to 1000 nM | 100 to 1000 nM | 100 to 1000 nM | < 100 nM |
| C[C@H]1CN(c2cnc3nc(-c4cc5cn(C)nc5c(F)c4O)cc(Cl)c3c2)C[C@H](C)N1 [Compound 280] | < 100 nM | < 100 nM | < 100 nM | < 100 nM |
